Results reported in paper PMC8578629, “Photoactivated cell-killing amino-based flavylium compounds” (Scientific Reports, 2021).

Columns and labels:
[1] = Molar absorption coefficient (ɛ) at 630 nm; type: physicochemical
Procedure: The molar extinction coefficient or molar absorption (ɛ), of all synthesized pigments was determined in three different solvents (ethanol, methanol and DMSO). For each pigment, in each solvent, a range of concentrations was prepared and then the spectrum of each solution was read. Finally, the respective absorbances (collected at 630 nm) were represented as a function of concentration and the ɛ value was taken from the slope value of the equation curve.

[2] = Oxygen singlet production by Singlet Oxygen Sensor Green assay; details: compound 25 μM, after white light irradiation 79.2 J cm^−2
Procedure: The production of singlet oxygen by the different amino-based compounds in solution was determined as follows: a stock solution of Singlet Oxygen Sensor Green was prepared at 5 mM in methanol (MeOH). Working solutions of the probe were prepared at 2 mM in 100 mM pH 7.5 Tris buffer and in 100 mM pH 7.5 Tris buffer with 10 mM of Sodium Azide. The compounds were then prepared at a stock concentration of 500 μM and the working solutions were prepared in 100 mM pH 7.5 Tris buffer and in 100 mM pH 7.5 Tris buffer with 10 mM of Sodium Azide. 1 μL of Singlet Oxygen Sensor Green working solutions and 100 μL of compounds solution were mixed to a final volume of 1000 μL (in 100 mM pH 7.5 Tris buffer or in 100 mM pH 7.5 Tris buffer with 10 mM of Sodium Azide). 100 μL of each solution was then added to a 96-well black plate and 100 μL of Deuterium Oxide was added for a final concentration of 1 μM Singlet Oxygen Sensor Green and 25 μM for the different amino-based compounds. The fluorescence was then registered in a spectrofluorometer using excitation/emission of 488/525 nm. After this procedure, the wells were irradiated with a white light source with a total of 79.2 J cm^−2, corresponding to a total irradiation time of 1 h (6 pulses of 10 min) and then, the fluorescence determined using the same excitation/emission pair. As a positive control, Methylene Blue was used at a final concentration of 10 μM. The oxygen singlet production methodology was performed in a dark room.

HaCaT cells = experiment: Cellular uptake by HaCaT cells (overall uptake, adsorption/absorption ratio, kinetics); type: in vitro ADME, human; details: for Uptake amount, range over the initial concentrations: 4 h incubation, 6.25–100 μM; for % Uptake ± SEM: 4 h
Procedure: The cellular uptake of the different compounds by HaCaT cells was determined following the protocol: cells were seeded at a density of 4 × 10^4 cells/well onto 12-well plates (1060 μL per well) and after 24 h the compounds were added to the plates in different concentrations (6.25–100 μM; 1060 μL per well) and incubated for a period of 4 h at 37 °C in an atmosphere of 5% CO2 and in the presence of DMEM with 2% FBS. Then, the medium with the compounds was removed, cells are washed with PBS to remove any extracellular compounds and the same volume of DMSO (1060 µL) was added to cells. After 60 min in the dark, the plates were submitted to fluorescence determination. The fluorescence intensity of each well was then recorded at the different wavelength pairs specific for each tested compound (ex/em) in a FlexStation 3 Multi-Mode Microplate Reader. The fluorescence values were then used to plot into the corresponding calibration curves and the uptake amounts were determined. • Fl577/658 = 19.734 × Conc (7NEt24′NMe2), μM; Fl577/769 = 0.2869 × Conc (7NEt2st4′NMe2), μM; • Fl577/635 = 24.556 × Conc (7NEt24′NH2), μM; Fl577/635 = 42.851 × Conc (PpIX), μM;
The ratio between the absorption and surface adsorption by HaCaT for each compound was performed. Cells were seeded in the same conditions as previously stated. After 24 h, compounds were added to the plates at the concentration of 100 μM (1060 μL per well) and incubated for a period of 4 h at 37 °C in an atmosphere of 5% CO2 and in the presence of DMEM with 2% FBS. After incubation, the medium with the compounds was removed and Dulbecco’s phosphate buffer (DPBS) was added (1060 μL per well). The fluorescence intensity of each well was then determined at the different wavelength pairs specific for each tested compound (ex/em) using a FlexStation 3 Multi‐Mode Microplate Reader. After this, 300 μL of Trypan Blue was added ([…]) to each well and the fluorescence intensity was determined in the same conditions. Cells with DPBS and cells with DPBS + Trypan Blue were used as controls. • Fl577/658 = 19.734 × Conc (7NEt24′NMe2), μM; Fl577/769 = 0.2869 × Conc (7NEt2st4′NMe2), μM; • Fl577/635 = 24.556 × Conc (7NEt24′NH2), μM; Fl577/635 = 42.851 × Conc (PpIX), μM;
The cellular uptake kinetics of the different compounds by HaCaT cells was determined as follows: cells were seeded at a density of 4 × 10^4 cells/well onto 12-well plates (1060 μL per well) and after 24 h compounds were added to the plates at a concentration of 100 μM (1060 μL per well) and incubated for different time periods (15, 30, 60, 120, 180 and 240 min) at 37 °C in an atmosphere of 5% CO2 and in the presence of DMEM with 2% FBS. After each time period, the medium with the compounds was removed and DMSO was added to cells. After 60 min in the dark the plates were submitted to fluorescence determination. The fluorescence intensity of each well was then determined at the different wavelength pairs specific for each tested compound (ex/em) (FlexStation 3 Multi-Mode Microplate Reader). The fluorescence values were then used to plot into the corresponding calibration curves and the uptake amounts were determined.

[3] = Maximum absorption wavelength of the flavylium cation; type: physicochemical; details: species adsorbed/absorbed in cells
[4] = Fluorescence quantum yield by the absolute method (integrating sphere); type: physicochemical; details: in DMSO
Procedure: Based on the absorbance maxima of the different compounds (Fig. S2), the measurement of the quantum yield (QY) of the synthesized flavylium derivatives was performed using a calibrated Quantaurus-QY stand-alone integrating sphere setup C11347-11 (Hamamatsu Photonics, Hamamatsu, Japan) equipped with an integration sphere, a monochromator, a spectrograph, a 150 W xenon light source and a silicon charge coupled device. Each compound was dissolved in DMSO and diluted to ensure an absorbance of 0.1 from the λmax of excitation forward. Each compound was then irradiated at the corresponding wavelength and the absolute quantum yield determined. The fluorescence spectra was also recorded (Fig. S3). For each compound, four independent experiments were performed.

| SMILES | Molar absorption coefficient ɛ at 630 nm ([1]; DMSO) | Molar absorption coefficient ɛ at 630 nm ([1]; Ethanol) | Molar absorption coefficient ɛ at 630 nm ([1]; Methanol) | ^1O2 production [2] [%] | Uptake amount, range over the initial concentrations (HaCaT cells) | % Uptake ± SEM (HaCaT cells; initial concentration 6.25 μM) [%] | % Uptake ± SEM (HaCaT cells; initial concentration 12.5 μM) [%] | % Uptake ± SEM (HaCaT cells; initial concentration 25 μM) [%] | % Uptake ± SEM (HaCaT cells; initial concentration 50 μM) [%] | % Uptake ± SEM (HaCaT cells; initial concentration 100 μM) [%] | Maximum absorption wavelength of the flavylium cation [3] [nm] | Quantum yield of fluorescence (Φf), mean ± SD [4] [%] |
| --- | --- | --- | --- | --- | --- | --- | --- | --- | --- | --- | --- | --- |
| CCN(CC)c1ccc2ccc(-c3ccc(N)cc3)[o+]c2c1 [7NEt24′NH2, 4′-amino-7-diethylamino-benzopyrylium] | 5687 M⁻¹ cm⁻¹ | 2225 M⁻¹ cm⁻¹ | 1682 M⁻¹ cm⁻¹ | 173.1 ± 15.73 | 1.229–2.192% | 1.229 ± 0.296 | 1.828 ± 0.419 | 1.977 ± 0.581 | 2.192 ± 0.662 | 1.785 ± 0.383 | 575 | – |
| C=CC1=C(C)c2cc3[nH]c(cc4nc(cc5[nH]c(cc1n2)c(C)c5CCC(=O)O)C(CCC(=O)O)=C4C)c(C)c3C=C [PpIX, protoporphyrin IX, reference compound] | 3207 M⁻¹ cm⁻¹ | – | – | 263.3 ± 12.28 | – | 0.694 ± 0.110 | 0.615 ± 0.050 | 0.508 ± 0.021 | 0.667 ± 0.040 | 0.659 ± 0.037 | – | – |
| CCN(CC)c1ccc2ccc(-c3ccc(N(C)C)cc3)[o+]c2c1 [7NEt24′NMe2, 7-diethylamino-4′-dimethylamino-benzopyrylium] | 11,031 M^−1 cm^−1 | 10,725 M^−1 cm^−1 | 8,720 M^−1 cm^−1 | 131.2 ± 3.90 | 2.745–4.156% | 3.416 ± 0.629 | 4.156 ± 0.764 | 2.745 ± 0.504 | 3.660 ± 0.831 | 3.523 ± 0.695 | 596 | 5.83 ± 0.28 |
| CCN(CC)c1ccc2ccc(/C=C/c3ccc(N(C)C)cc3)[o+]c2c1 [7NEt2st4′NMe2, 7-(diethylamino)-2-(4′-dimethylaminostyryl)-benzopyrylium] | 15,728 M^−1 cm^−1 | 16,281 M^−1 cm^−1 | 22,749 M^−1 cm^−1 | 181.2 ± 22.23 | 3.564–5.830% | 4.448 ± 0.876 | 4.236 ± 0.628 | 3.564 ± 0.613 | 4.091 ± 0.552 | 5.830 ± 1.569 | 672 | 3.40 ± 0.17 |
